Data published in patent US12077503B2, “Substituted cyclic amides and their use as herbicides” (FMC CORPORATION, priority 2015, dated 2024).
Where two headings read alike, the source gives them in different places.

Legend:
Assay type in all cases: in vivo
[1] = tested on: giant foxtail (Setaria faberii); test: Test A preemergence; details: Setaria faberi, pre-emergence, 240 h; for pest or weed control at 125 g/ha: 125 g ai/ha, visual rating after approx. 10 d, 0 to 100 scale where 0 is no effect and 100 is complete control; for pest or weed control at 500 g/ha: 500 g ai/ha
Method in brief: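 Preemergence directed soil spray on seeded pots, or postemergence application to plants 2–10 cm, one- to two-leaf. Solvent mixture non-phytotoxic, with surfactant. Scored ~10 d later, visually, 0–100 vs untreated.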

[2] = tested on: barnyardgrass (Echinochloa crus-galli); test: Test B flooded paddy test; details: Echinochloa crus-galli, Flood, 250 g ai/ha; scale of 0 to 100 where 0 is no effect and 100 is complete control; read-out: Barnyardgrass plant response rating
Method in brief: (§1)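 Evaluation by eye, against controls, occurred 13–15 d post-treatment in a greenhouse, using a 0 (no effect) to 100 (complete control) scale. Application was into the paddy water, 3 cm deep over the soil, on 2-leaf plants.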

rice (Oryra sativa) = test: Test B flooded paddy test; details: Oryza sativa, Flood, 250 g ai/ha; scale of 0 to 100 where 0 is no effect and 100 is complete control; read-out: Rice plant response rating
Method in brief: as §1

[3] = tested on: sedge, umbrella (small-flower umbrella sedge, Cyperus difformis); test: Test B flooded paddy test; details: Cyperus difformis, Flood, 250 g ai/ha; scale of 0 to 100 where 0 is no effect and 100 is complete control; read-out: Sedge, Umbrella plant response rating
Method in brief: as §1

[4] = tested on: ducksalad (Heteranthera limosa); test: Test B flooded paddy test; details: Heteranthera limosa, Flood, 250 g ai/ha; scale of 0 to 100 where 0 is no effect and 100 is complete control; read-out: Ducksalad plant response rating
Method in brief: as §1

[5] = preemergence, read-out: Plant response rating, Foxtail, Giant
[6] = preemergence, 0 to 100 scale, 0 = no effect, 100 = complete control, read-out: Plant response rating, Foxtail, Giant

SMILES: CSc1ccccc1NC(=O)[C@H]1C(=O)N(C)C[C@@H]1c1cc(F)cc(F)c1 [Compound 738]
- pest or weed control at 125 g/ha [1, 5]: 90%
- pest or weed control at 500 g/ha [1, 6]: 100%
- pest or weed control at 250 g/ha [2]: 40%
- pest or weed control at 250 g/ha (rice (Oryra sativa)): 0%
- pest or weed control at 250 g/ha [3]: 0%
- pest or weed control at 250 g/ha [4]: 100%

SMILES: CN1C[C@H](c2cc(F)cc(F)c2)[C@@H](C(=O)Nc2ccccc2S(C)(=O)=O)C1=O [Compound 739]
- pest or weed control at 125 g/ha [1, 5]: 90%
- pest or weed control at 500 g/ha [1, 6]: 100%
- pest or weed control at 250 g/ha [2]: 60%
- pest or weed control at 250 g/ha (rice (Oryra sativa)): 0%
- pest or weed control at 250 g/ha [3]: 0%
- pest or weed control at 250 g/ha [4]: 100%

SMILES: CN1C[C@H](c2ccc3c(c2)CCC3)[C@@H](C(=O)Nc2ccccc2F)C1=O [Compound 742]
- pest or weed control at 125 g/ha [1, 5]: 90%
- pest or weed control at 500 g/ha [1, 6]: 90%
- pest or weed control at 250 g/ha [2]: 60%
- pest or weed control at 250 g/ha (rice (Oryra sativa)): 0%
- pest or weed control at 250 g/ha [3]: 0%
- pest or weed control at 250 g/ha [4]: 100%

SMILES: CN1C[C@H](c2ccc3c(c2)CCC3)[C@@H](C(=O)Nc2cccc(F)c2F)C1=O [Compound 743]
- pest or weed control at 125 g/ha [1, 5]: 90%
- pest or weed control at 500 g/ha [1, 6]: 90%
- pest or weed control at 250 g/ha [2]: 65%
- pest or weed control at 250 g/ha (rice (Oryra sativa)): 20%
- pest or weed control at 250 g/ha [3]: 0%
- pest or weed control at 250 g/ha [4]: 95%

SMILES: CN1C[C@H](c2ccc3c(c2)CCC3)[C@@H](C(=O)Nc2ccccc2S(C)(=O)=O)C1=O [Compound 744]
- pest or weed control at 125 g/ha [1, 5]: 90%
- pest or weed control at 500 g/ha [1, 6]: 90%
- pest or weed control at 250 g/ha [2]: 60%
- pest or weed control at 250 g/ha (rice (Oryra sativa)): 0%
- pest or weed control at 250 g/ha [3]: 0%
- pest or weed control at 250 g/ha [4]: 85%

SMILES: CN1C[C@H](c2ccc(C(F)(F)F)cc2)[C@@H](C(=O)Nc2ccc(F)c(F)c2F)C1=O [Compound 745]
- pest or weed control at 125 g/ha [1, 5]: 90%
- pest or weed control at 500 g/ha [1, 6]: 90%
- pest or weed control at 250 g/ha [2]: 70%
- pest or weed control at 250 g/ha (rice (Oryra sativa)): 40%
- pest or weed control at 250 g/ha [3]: 0%
- pest or weed control at 250 g/ha [4]: 100%

SMILES: CS(=O)(=O)c1ccccc1NC(=O)[C@H]1C(=O)NC[C@@H]1c1cccc2c1OC(F)(F)O2 [Compound 753]
- pest or weed control at 125 g/ha [1, 5]: 70%
- pest or weed control at 500 g/ha [1, 6]: 90%
- pest or weed control at 250 g/ha [2]: 0%
- pest or weed control at 250 g/ha (rice (Oryra sativa)): 0%
- pest or weed control at 250 g/ha [3]: 0%
- pest or weed control at 250 g/ha [4]: 60%

SMILES: Cc1ccc([C@H]2CNC(=S)[C@@H]2C(=O)Nc2cccc(F)c2C)cc1C [Compound 764]
- pest or weed control at 125 g/ha [1, 5]: 70%
- pest or weed control at 500 g/ha [1, 6]: 80%
- pest or weed control at 250 g/ha [2]: 50%
- pest or weed control at 250 g/ha (rice (Oryra sativa)): 0%
- pest or weed control at 250 g/ha [3]: 0%
- pest or weed control at 250 g/ha [4]: 90%

SMILES: CSc1ccccc1NC(=O)[C@H]1C(=S)NC[C@@H]1c1ccc(C)c(C)c1 [Compound 766]
- pest or weed control at 125 g/ha [1, 5]: 0%
- pest or weed control at 500 g/ha [1, 6]: 40%
- pest or weed control at 250 g/ha [2]: 0%
- pest or weed control at 250 g/ha (rice (Oryra sativa)): 0%
- pest or weed control at 250 g/ha [3]: 60%
- pest or weed control at 250 g/ha [4]: 85%

SMILES: COc1cc([C@H]2CN(C)C(=O)[C@@H]2C(=O)Nc2ccccc2F)ccc1C(F)(F)F [Compound 768]
- pest or weed control at 125 g/ha [1, 5]: 90%
- pest or weed control at 500 g/ha [1, 6]: 90%
- pest or weed control at 250 g/ha [2]: 60%
- pest or weed control at 250 g/ha (rice (Oryra sativa)): 15%
- pest or weed control at 250 g/ha [3]: 0%
- pest or weed control at 250 g/ha [4]: 85%

SMILES: COc1cc([C@H]2CN(C)C(=O)[C@@H]2C(=O)Nc2cccc(F)c2F)ccc1C(F)(F)F [Compound 770]
- pest or weed control at 125 g/ha [1, 5]: 90%
- pest or weed control at 31 g/ha ([1]; Preemergence, 31 g ai/ha, 0 to 100 scale (0 no effect, 100 complete control), read-out: Plant response rating, Foxtail, Giant): 90%
- pest or weed control at 250 g/ha [2]: 0%
- pest or weed control at 250 g/ha (rice (Oryra sativa)): 0%
- pest or weed control at 250 g/ha [3]: 0%
- pest or weed control at 250 g/ha [4]: 0%

SMILES: CC(F)(F)c1cccc([C@H]2CNC(=O)[C@@H]2C(=O)Nc2cccc(F)c2F)c1 [Compound 779]
- pest or weed control at 125 g/ha [1, 5]: 90%
- pest or weed control at 500 g/ha ([1]; Preemergence, visual injury vs untreated controls after approximately 10 d, read-out: Foxtail, Giant plant response rating (0 to 100 scale where 0 is no effect and 100 is complete control)): 90%
- pest or weed control at 250 g/ha [2]: 60%
- pest or weed control at 250 g/ha (rice (Oryra sativa)): 0%
- pest or weed control at 250 g/ha [3]: 0%
- pest or weed control at 250 g/ha [4]: 100%
